Assay results reported in PubChem BioAssay (NCI).
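Step 1: Grow cells in 96-well plates. Step 2: Expose to compound for 48 hours at 5 concentrations. Step 3: Interpolate endpoints linearly; if unreached, use highest concentration. The concentration for 50% growth inhibition is given as GI50. TGI denotes the concentration required for complete inhibition of growth.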

Key:
Test in all cases: NCI-60 cell line screen, 48 h
COLO 205 colon = system: COLO 205 colon
EKVX NSCLC = system: EKVX NSCLC
HCC-2998 colon = system: HCC-2998 colon
HOP-92 NSCLC = system: HOP-92 NSCLC
LOX IMVI melanoma = system: LOX IMVI melanoma
OVCAR-5 ovarian = system: OVCAR-5 ovarian
SK-MEL-5 melanoma = system: SK-MEL-5 melanoma
SN12C renal = system: SN12C renal
HCT-15 colon = system: HCT-15 colon
BT-549 breast = system: BT-549 breast

SMILES | TGI (COLO 205 colon) | TGI (EKVX NSCLC) | TGI (HCC-2998 colon) | TGI (HOP-92 NSCLC) | TGI (LOX IMVI melanoma) | TGI (OVCAR-5 ovarian) | TGI (SK-MEL-5 melanoma) | TGI (SN12C renal) | TGI (HCT-15 colon) | GI50 (COLO 205 colon) | GI50 (EKVX NSCLC) | GI50 (HCC-2998 colon) | GI50 (HCT-15 colon) | GI50 (HOP-92 NSCLC) | GI50 (LOX IMVI melanoma) | GI50 (OVCAR-5 ovarian) | GI50 (SK-MEL-5 melanoma) | GI50 (SN12C renal) | TGI (BT-549 breast)
O=c1oc2ccccc2n1P(=O)(Oc1ccc(Cl)cc1)n1c(=O)oc2ccccc21 | > 100 µM | > 100 µM | > 100 µM | > 100 µM | > 100 µM | > 100 µM | > 100 µM | > 100 µM | – | – | – | – | – | – | – | – | – | – | –
C[C@@H](c1ccccc1)N1CO[C@@]2(C#Cc3ccc4c(c3)OCO4)CCC[C@@H]12 | 31.4 µM | 52.6 µM | 34.7 µM | 19.7 µM | 25.2 µM | 32 µM | 25.8 µM | 33.3 µM | 27.4 µM | – | – | – | – | – | – | – | – | – | –
CC(=O)O[C@@H]1CC[C@@]2(C)C(=O)C34C[C@@]5(C)C([C@@H](C)CCCC(C)C)CCC5(C)[C@](O)(O3)C(=O)[C@H]4C2C1(C)C (stereo partly specified) | 27.8 µM | 38.3 µM | 23.5 µM | 34.5 µM | 32.1 µM | 29.3 µM | 28.4 µM | 26.7 µM | 26.5 µM | – | – | – | – | – | – | – | – | – | –
C=C1CN2CCc3c([nH]c4ccccc34)C2CC1CC(=O)N(C)C (stereo unspecified) | > 309 µM | > 309 µM | > 309 µM | > 309 µM | > 309 µM | – | > 309 µM | > 309 µM | > 309 µM | – | – | – | – | – | – | – | – | – | –
Nc1ncnc2c1ccn2-c1cccc(NC(=O)c2ccc(N3CCOCC3)c(C(F)(F)F)c2)c1 | 15.1 µM | 22.1 µM | 19.6 µM | 5.82 µM | 12.7 µM | 21.1 µM | 13.2 µM | 9.64 µM | 10.4 µM | 3.79 µM | 3.2 µM | 4.6 µM | 2740 nM | 1600 nM | 3.1 µM | 3 µM | 2560 nM | 2900 nM | –
CCOC(=O)CC1Nc2ccccc2C12CCc1c([nH]c3ccccc13)C2C(=O)OCC (stereo unspecified) | 22.4 µM | > 100 µM | > 100 µM | – | > 100 µM | > 100 µM | > 100 µM | > 100 µM | > 100 µM | – | – | – | – | – | – | – | – | – | > 100 µM
O=C(Nc1ccc(F)cc1)c1cc2c(cc1Cl)Sc1nccn1S2(=O)=O | > 100 µM | > 100 µM | > 100 µM | – | > 100 µM | > 100 µM | > 100 µM | > 100 µM | > 100 µM | – | – | – | – | – | – | – | – | – | –
Cc1cccc(-c2nc(-c3cnccn3)n(Cc3ccccc3)n2)c1 | > 100 µM | – | > 100 µM | 79.6 µM | > 100 µM | > 100 µM | > 100 µM | > 100 µM | > 100 µM | – | – | – | – | – | – | – | – | – | > 100 µM
C[C@]12CCc3nn(-c4ccccc4)nc3C1CC[C@@H]1C2CC[C@]2(C)C(=O)CCC12 (stereo partly specified) | > 100 µM | > 100 µM | > 100 µM | > 100 µM | > 100 µM | > 100 µM | > 100 µM | > 100 µM | > 100 µM | – | – | – | – | – | – | – | – | – | –
CC(N)C(C)c1ccccc1 (stereo unspecified) | > 100 µM | > 100 µM | > 100 µM | > 100 µM | > 100 µM | > 100 µM | > 100 µM | > 100 µM | > 100 µM | – | – | – | – | – | – | – | – | – | –
C#CCn1c(=O)ccn(/C(=C/C(=O)OCC)C(=O)OCC)c1=O | – | 20.3 µM | – | 6.32 µM | 40.3 µM | 21.9 µM | 31 µM | 29.5 µM | 7.8 µM | – | – | – | – | – | – | – | – | – | 23.2 µM
CC(C)C(CCOS(=O)(=O)O)CCC(C)[C@H]1[C@@H](O)C(O)C2[C@]3(O)C[C@@H](O)C4(O)C[C@@H](O)CC[C@]4(C)C3CC[C@@]21C (stereo partly specified) | > 100 µM | > 100 µM | > 100 µM | > 100 µM | > 100 µM | – | > 100 µM | > 100 µM | > 100 µM | – | – | – | – | – | – | – | – | – | –
C=CCOCn1cnc2c(=O)[nH]c(N)nc21 | > 100 µM | > 100 µM | > 100 µM | – | > 100 µM | > 100 µM | > 100 µM | > 100 µM | > 100 µM | – | – | – | – | – | – | – | – | – | –
C/C(CCN(C)C)=N\OC(=O)c1ccccc1 | > 100 µM | > 100 µM | > 100 µM | > 100 µM | > 100 µM | > 100 µM | > 100 µM | > 100 µM | – | – | – | – | – | – | – | – | – | – | –
Cn1c(=O)n(C2(C)CSC2)c2ccccc21 | > 100 µM | > 100 µM | > 100 µM | > 100 µM | > 100 µM | > 100 µM | > 100 µM | > 100 µM | > 100 µM | – | – | – | – | – | – | – | – | – | –
CC1=CC[C@@H](C(C)(C)O)C[C@@H]1O | > 5000 µM | > 5000 µM | > 5000 µM | > 5000 µM | > 5000 µM | > 5000 µM | > 5000 µM | > 5000 µM | > 5000 µM | – | – | – | – | – | – | – | – | – | –
COc1cc(C(c2ccc3c(c2)OCO3)C2SCCCS2)cc(OC)c1OC (stereo unspecified) | 3.08 µM | 19.6 µM | 8.8 µM | – | – | 66.2 µM | 9.21 µM | 8.99 µM | 6.58 µM | – | – | – | – | – | – | – | – | – | > 100 µM
CC(C)C(/C=C/c1ccc(Cl)cc1)=N\NC(=O)N/N=C(/C=C/c1ccc(Cl)cc1)C(C)C | > 100 µM | 50.5 µM | > 100 µM | 56.9 µM | – | > 100 µM | > 100 µM | 33.7 µM | > 100 µM | – | – | – | – | – | – | – | – | – | 97.9 µM
c1ccc2c(c1)-c1ccccc1C2NC1=NCCO1 | 41 µM | > 100 µM | 33.3 µM | 36.3 µM | 48.3 µM | > 100 µM | 29.1 µM | > 100 µM | 21.3 µM | – | – | – | – | – | – | – | – | – | –
COc1ccc(-c2cc(=O)c3cc(O)ccc3o2)c(OC)c1OC | > 100 µM | > 100 µM | > 100 µM | 98 µM | 57.1 µM | 81.4 µM | – | > 100 µM | > 100 µM | – | – | – | – | – | – | – | – | – | –
O=C(OCC(OC(=O)c1ccccc1)C1CC(C2(O)CCCCC2)C(=O)O1)c1ccccc1 (stereo unspecified) | > 25 µM | > 25 µM | > 25 µM | – | > 25 µM | > 25 µM | > 25 µM | > 25 µM | > 25 µM | – | – | – | – | – | – | – | – | – | > 25 µM
COc1nc(NC2OC(CO)C(O)C(O)C2O)c(N)c(=O)[nH]1 (stereo unspecified) | > 100 µM | > 100 µM | > 100 µM | > 100 µM | > 100 µM | > 100 µM | > 100 µM | > 100 µM | > 100 µM | – | – | – | – | – | – | – | – | – | –
COC(=O)c1c2c(cc3c1CC1(C3)Cc3cc4c(c(C(=O)OC)c3C1)CCC4)CCC2 | > 100 µM | > 100 µM | > 100 µM | > 100 µM | > 100 µM | > 100 µM | > 100 µM | > 100 µM | – | – | – | – | – | – | – | – | – | – | –
